According to patent publication US20180291043A1, “BENZOCYCLOOCTENE-BASED AND INDENE-BASED ANTICANCER AGENTS” (BAYLOR UNIVERSITY, priority 2016, published 2018):
Entries after “also recorded” stand apart in the source; their conditions may differ. Where two headings read alike, the source gives them in different places.

Tests used:
[1] = test system: MCF7-luc-GFP-mCherry breast tumor; assay: Histological assessment of tumor necrosis (H&E); format: in vivo, SCID mice; details: 120 mg/kg, 48 h post treatment
Experimental: Following the 48 h BLI data acquisition, the tumors were excised, bisected and fixed in 4% paraformaldehyde solution. Tumor tissue was processed for paraffin embedding, sectioned and stained by routine methods. H&E staining was performed on one cross section from each tumor. Whole mount high resolution microscopy was obtained using a Zeiss Axioscan Z1 digital slide scanner. […] Thus, analogue 24 may be a therapeutically useful VDA.

[2] = test system: MCF7-luc-GFP-mCherry breast tumor; assay: Bioluminescence imaging (BLI) of vascular disruption in tumor-bearing mice; format: in vivo, SCID mice; details: for reduction in bioluminescence (decrease compared to baseline or saline control): single dose 120 mg/kg ip, 4 h after compound injection, p<0.05
Experimental: Human breast cancer cells, MCF7-luc-GFP-mCherry (ATCC), were transfected sequentially with a lentivirus containing firefly luciferase reporter, GFP and mCherry reporter genes, as described in Liu et al., 2012. Highly expressing stable clones were isolated. Induction of tumors was carried out by injecting 10^6 cells mixed with 50% Matrigel™ (BD Biosciences, San Jose, Calif.) into the right upper ventral mammary fat pads of female SCID-NOD mice (UTSW breeding colony). Tumors were allowed to grow to a size of 10-12 mm in diameter, determined by calipers, before selection for BLI. All animal procedures were approved by the University of Texas Southwestern Medical Center Institutional Animal Care and Use Committee.
Bioluminescence imaging was carried out as described in Liu et al., 2012. Briefly, anesthetized, tumor bearing mice (O2, 2% isoflurane, Henry Schein Inc., Melville, N.Y.) were injected subcutaneously in the fore-back neck region with 80 μL of a solution of luciferase substrate, D-luciferin (sodium salt, 120 mg/kg, in saline, Gold Biotechnology, St. Louis, Mo.). Mice were maintained under anesthesia (2% isoflurane in oxygen, 1 dm^3/min), while baseline bioluminescence imaging was performed using a Caliper Xenogen IVIS® Spectrum (Perkin-Elmer, Alameda, Calif.). A series of BLI images was collected over 35 min using the following settings: auto exposure time, f-stop=2, Field of view=D, binning=4 (medium). Light intensity-time curves obtained from these images were analyzed using Living Image® software and light emission compared based on area under the light emission curve. Mice were injected intraperitoneally with either 120 μL of saline (vehicle), CA4P (provided by Mateon Therapeutics, Inc.; 120 mg/kg in saline as used in Mason et al., 2011 or analogue 24 (120 mg/kg) in saline immediately after baseline BLI. Bioluminescence imaging was repeated, with new luciferin injections 4, 24, and 48 h later.
Bioluminescence imaging (BLI) is a highly valuable modality with diverse applications in a wide range of biological models and systems. BLI is a particularly useful tool for assessing and quantifying in vivo blood flow reduction following treatment with a VDA. In the current study MCF7 human breast cancer cells, which had been previously transfected stably to express the enzyme luciferase, as well as two fluorescent proteins, as designated by MCF7-luc-GFP-mCherry were implanted in SCID mice. Since the luciferase substrate luciferin can be delivered to the tumor via the blood stream, damage to the vessels by a VDA can be quantified by measurement of reduced bioluminescence upon injection of luciferin. […]

[3] = test system: purified bovine brain tubulin; details: Data from Pettit et al., 2000; read-out: Inhibition of tubulin polymerization IC50 (μM) ± SD; cited from earlier work
[4] = test system: DU-145; assay: SRB assay, growth inhibition, DU-145; format: cell-based, human; details: 48 h treatment, average of n ≥ 3
Experimental: (§1) Inhibition of growth of human cancer cells was assessed using the sulforhodamine B assay (SRB), as described in Monks et al., 1991. Cancer cell lines (DU-145, SK-OV-3, and NCI-H460) were plated at 7500-8000 cells/well into 96-well plates using DMEM supplemented with 5% fetal bovine serum/1% gentamicin sulfate and incubated for 24 h at 37° C. in a humidified incubator. Compound serial dilutions were then added. After 48 h treatment, the cells were fixed with trichloroacetic acid (10% final concentration), washed, dried, stained with sulforhodamine B dye (Acid red 52), washed to remove excess dye, and dried. SRB dye was solubilized, and absorbances were measured at wavelength 540 nm and normalized to values at wavelength 630 nm using an automated Biotek plate reader.

[5] = test system: NCI-H460; assay: SRB assay, growth inhibition, NCI-H460; format: cell-based, human; details: 48 h treatment, average of n ≥ 3
Experimental: as §1

[6] = test system: SK-OV-3; assay: SRB assay, growth inhibition, SK-OV-3; format: cell-based, human; details: 48 h treatment, average of n ≥ 3
Experimental: as §1

[7] = test system: DU-145; details: Data from Devkota et. al., 2016; read-out: GI50 (μM) SRB assay DU-145; cited from earlier work
[8] = test system: NCI-H460; details: Data from Devkota et. al., 2016; read-out: GI50 (μM) SRB assay NCI-H460; cited from earlier work
[9] = test system: tubulin; assay: Colchicine binding assay (inhibition of [3H]colchicine binding to tubulin)
Experimental: Inhibition of [^3H]colchicine binding to tubulin was measured using reaction mixtures (100 μL each) containing 1.0 μM tubulin, 5.0 μM [^3H]colchicine (from Perkin-Elmer), 5% (v/v) dimethyl sulfoxide, […], and components that stabilize the colchicine binding activity of tubulin (Hamel et al., 1981) (1.0 M monosodium glutamate [adjusted to pH 6.6 with HCl in a 2.0 M stock solution], 0.5 mg/mL bovine serum albumin, 0.1 M glucose-1-phosphate, 1.0 mM MgCl2, and 1.0 mM GTP). […] Reactions were stopped with 2.0 mL of ice-cold water, and the reaction mixtures were placed on ice. Each sample was poured onto a stack of two DEAE-cellulose filters (from Whatman), followed by 6 mL of ice-cold water. The samples were aspirated under reduced vacuum. The filters were washed three times with 2 mL water and placed into vials containing 5 mL of Biosafe II scintillation cocktail. Samples were counted 18 h later in a Beckman scintillation counter. Samples with inhibitors were compared to samples with no inhibitor, and percent inhibition was determined. All samples were corrected for the amount of radiolabel bound to the filters in the absence of tubulin.

[10] = test system: SK-OV-3; details: Data from Devkota et. al., 2016; read-out: GI50 (μM) SRB assay SK-OV-3; cited from earlier work
[11] = test system: purified bovine brain tubulin; assay: Inhibition of tubulin polymerization (tubulin assembly); format: biochemical; details: 10 μM tubulin, extent of assembly after 20 min at 30° C.; read-out: Inhibition of tubulin polymerization IC50 (μM) ± SD
Experimental: Inhibition of Tubulin Polymerization
Tubulin assembly experiments were performed in 0.25 mL reaction mixtures (final volume) (Hamel, 2003). The mixtures contained 1 mg/mL (10 μM) purified bovine brain tubulin, 0.8 M monosodium glutamate (pH 6.6), 4% (v/v) dimethyl sulfoxide, 0.4 mM GTP, and different compound concentrations. All reaction components except GTP were preincubated for 15 min at 30° C. in 0.24 mL. The mixtures were cooled to 0° C., and 10 μL of 10 mM GTP were added. Reaction mixtures were transferred to cuvettes held at 0° C. in Beckman DU-7400 and DU-7500 spectrophotometers equipped with electronic temperature controllers. The temperature was jumped to 30° C., taking about 30 s, and polymerization was followed at 350 nm for 20 min.

[12] = test system: human cancer cell lines (DU-145, SK-OV-3, NCI-H460); assay: SRB cytotoxicity, statements over the three human cancer cell lines; format: cell-based; details: all three human cancer cell lines
Experimental: as §1

[13] = Limited dose escalation study (tolerability); format: in vivo, non-tumor bearing SCID mice; details: dose of 120 mg/kg; dose escalation 60-150 mg/kg; MTD not yet determined
[14] = inhibitor at 5 μM, 1.0 μM tubulin, 5.0 μM [3H]colchicine

Row | Compound | % Inhibition of colchicine binding ± SD [9, 14] | GI50 ([4]; Homo sapiens, DU-145) | IC50 [11] | GI50 ([5]; Homo sapiens, NCI-H460) | GI50 ([6]; Homo sapiens, SK-OV-3) | also measured
1 | COc1ccc(/C=C\c2cc(OC)c(OC)c(OC)c2)cc1OP(=O)(O)O [CA4P, Combretastatin A-4P, reference compound] | – | – | – | – | – | tumor necrosis (H&E staining) compared with saline control [1]: much more extensive necrosis; reduction in bioluminescence (decrease compared to baseline or saline control) [2]: approximately 80%; IC50 [3]: > 20 µM; GI50 [4]: 3.36 nM; GI50 [5]: 2.82 nM; GI50 [6]: 1.9 nM
2 | COc1ccc(/C=C\c2cc(OC)c(OC)c(OC)c2)cc1O [CA4] | – | – | – | – | – | GI50 [7]: 0.00602 µM; GI50 [8]: 0.005 µM; % Inhibition of colchicine binding ± SD ([9]; inhibitor at 1 μM): […]; IC50 [3]: […]; GI50 [10]: 0.00506 µM
3 | COc1cc(C2=CCCCCc3c2ccc(OC)c3OC)cc(OC)c1OC [Compound 20, 1,2-Dimethoxy-5-(3′,4′,5′-trimethoxyphenyl)-benzocyclooct-5-ene] | 31 ± 0.6 (5 μM) % | 448 nM | 4.5 ± 0.5 µM | 395 nM | 512 nM | –
4 | COc1ccc2c(c1)CCCCC=C2c1cc(OC)c(OC)c(OC)c1 [Compound 21, 2-Methoxy-5-(3′,4′,5′-trimethoxyphenyl)-benzocyclooct-5-ene] | 29 ± 5 (5 μM) % | 570 nM | 3 ± 0.1 µM | 431 nM | 400 nM | –
5 | COc1ccc2c(c1O)CCCCC=C2c1cc(OC)c(OC)c(OC)c1 [Compound 23, 1-Hydroxy-2-methoxy-5-(3′,4′,5′-trimethoxyphenyl)-benzocyclooct-5-ene] | 78% | 105 nM | 1.2 µM | 107 nM | 81.1 nM | GI50 values / cytotoxicity range in words [12]: submicromolar
6 | COc1cc(C2=CCCCCc3c2ccc(OC)c3OP(=O)([O-])[O-])cc(OC)c1OC.[Na+].[Na+] [Compound 24, Sodium 2-methoxy-5-(3′,4′,5′-trimethoxyphenyl)-benzocyclooct-5-en-1-yl phosphate] | – | 41 nM | > 20 µM | 26 nM | 36.6 nM | tumor necrosis (H&E staining) compared with saline control [1]: much more extensive necrosis; GI50 values / cytotoxicity range in words [12]: submicromolar; bioluminescence intensity at 24 and 48 h ([2]; 120 mg/kg ip, 24 and 48 h post administration, phosphate): the effect continued at both 24 and 48 h; also recorded: remained significantly below baseline values; vascular shutdown / reduction of blood flow as evidenced by BLI ([2]; 120 mg/kg, 4 h post administration, phosphate): significant vascular shutdown; also recorded: significant in vivo reduction of blood flow; reduction in bioluminescence (decrease compared to baseline or saline control) [2]: approximately 80%; tolerability of dose [13]: tolerated
7 | COc1cc(C2=CCc3c2ccc(OC)c3OC)cc(OC)c1OC [Compound 28, 6,7-Dimethoxy-3-(3′,4′,5′-trimethoxyphenyl)-1H-indene] | – | 34600 nM | > 20 µM | 42200 nM | 9460 nM | –
8 | COc1ccc2c(c1)CC=C2c1cc(OC)c(OC)c(OC)c1 [Compound 29, 6-Methoxy-3-(3′,4′,5′-trimethoxyphenyl)-1H-indene] | – | 4660 nM | > 20 µM | 4020 nM | 6150 nM | –
9 | COc1ccc2c(c1O)CC=C2c1cc(OC)c(OC)c(OC)c1 [Compound 31, 6-Methoxy-3-(3′,4′,5′-trimethoxyphenyl)-1H-inden-7-ol] | 17 ± 5 (5 μM) % | 362 nM | 11 µM | 388 nM | 704 nM | –
10 | COc1cc(C2=CCc3c2ccc(OC)c3OP(=O)(O)O)cc(OC)c1OC [Compound 32, Sodium 6-methoxy-3-(3′,4′,5′-trimethoxyphenyl)-1H-inden-7-yl phosphate] | – | 3340 nM | > 20 µM | 1500 nM | 334 nM | –
11 | COc1ccc2c(c1O)CCCC=C2c1cc(OC)c(OC)c(OC)c1 [KGP18, reference compound] | – | – | 1.4 µM | – | – | GI50 values / cytotoxicity range in words [12]: subnanomolar; GI50 values / cytotoxicity range in words ([12]; listed as KPG18): sub-nM; GI50 [4]: 0.0249 nM; GI50 [5]: 0.0418 nM; GI50 [6]: 0.0543 nM
